From patent US20230339981A1, “KRAS G12D MODULATING COMPOUNDS” (priority 2022, published 2023)

Key:
GP2D (KRAS G12D) cells = test: 2D cell viability assay (CellTiter-Glo); type: cell-based; details: 4 days
Summary of the method: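 Viability was read by CellTiter-Glo after 4 days at 37 °C of 2D culture of KRAS G12D GP2D cells (1000/well, RPMI, 10% FBS) on pre-spotted threefold compound dilutions. EC50 was fitted with a sigmoidal dose-response model as the point of half-maximal luminescence loss.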

AsPC-1 (KRAS G12D) cells = test: 3D cell viability assay (spheroids, CellTiter-Glo 3D); type: cell-based; details: AsPC-1 cells, 3D spheroids, 4 days
Summary of the method: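 AsPC-1 cells (1000/well) in DMEM with 10% FBS formed spheroids over 3 days at 37 °C in ultra-low attachment plates, then were treated with 1:3 serial dilutions for 4 days. Viability read by CellTiter-Glo 3D luminescence; EC50 as concentration giving 50% signal decrease, sigmoidal fit.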

GDP-loaded KRAS G12D = GDP-loaded KRAS G12D (Homo sapiens (Human), UniProt P01116, G12D); test: KRAS G12D (GDP) biochemical assay (TR-FRET probe displacement); type: binding; details: 2 hours
Chain of GDP-loaded KRAS G12D (P01116-2 other isoform, or with tags, fused parts or gaps G12D): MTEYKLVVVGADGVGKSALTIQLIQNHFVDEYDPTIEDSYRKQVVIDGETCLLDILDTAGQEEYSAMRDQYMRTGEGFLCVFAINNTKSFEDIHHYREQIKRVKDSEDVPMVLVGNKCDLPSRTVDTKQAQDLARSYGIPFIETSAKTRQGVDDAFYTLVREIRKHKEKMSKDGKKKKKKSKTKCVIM
Summary of the method: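 TR-FRET probe displacement: 1:3 DMSO serial dilutions pre-incubated 30 min with GDP-bound KRAS G12D, followed by Eu-streptavidin/probe for 2 h at room temperature (Hepes pH 7.4, NaCl, MgCl2, Tween-20 buffer). IC50 defined as concentration halving TR-FRET ratio, from sigmoidal dose-response fit.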

Row | Compound | EC50 (GP2D (KRAS G12D) cells; GP2d, 96 h) [nM] | EC50 (AsPC-1 (KRAS G12D) cells; Homo sapiens, ASPC1, 96 h) [nM] | IC50 (GDP-loaded KRAS G12D) [nM] | EC50 (GP2D (KRAS G12D) cells) [nM] | EC50 (AsPC-1 (KRAS G12D) cells) [nM]
1 | C#Cc1c(F)ccc2cccc(-c3nc4c5c(nc(OC[C@@]67CCCN6C[C@H](F)C7)nc5c3F)N3C[C@H]5CC[C@H](N5)[C@H]3C[C@@H]4CC)c12 [Example 175, (4S,5aR,6S,9R)-4-ethyl-2-(8-ethynyl-7-fluoronaphthalen-1-yl)-1-fluoro-12-(((2R,7aS)-2-fluorotetrahydro-1H-pyrrolizin-7a(5H)-yl)methoxy)-4,5,5a,6,7,8,9,10-octahydro-3,10a,11,13,14-pentaaza-6,9-methanonaphtho[1,8-ab]heptalene] | 11.9 | 150 | 0.5 | – | –
2 | C#Cc1c(F)ccc2cc(O)cc(-c3nc4c5c(nc(OC[C@@]67CCCN6C[C@H](F)C7)nc5c3F)N3C[C@H]5CC[C@H](N5)[C@H]3CCCC4)c12 [Example 189, 5-ethynyl-6-fluoro-4-((7aR,8S,11R)-1-fluoro-14-(((2R,7aS)-2-fluorotetrahydro-1H-pyrrolizin-7a(5H)-yl)methoxy)-4,5,6,7,7a,8,9,10,11,12-decahydro-3,12a,13,15,16-pentaaza-8,11-methanocyclohepta[4,5]cyclonona[1,2,3-de]naphthalen-2-yl)naphthalen-2-ol] | 0.6 | 2.9 | 0.1 | – | –
3 | C#Cc1c(F)ccc2cc(O)cc(-c3nc4c5c(nc(OC[C@@]67CCCN6[C@H](COC(C6CC6)C(F)(F)F)CC7)nc5c3F)N3C[C@H]5CC[C@H](N5)[C@H]3CC4)c12 (stereo partly drawn) [Example 110, 4-((5aR,6S,9R)-12-(((3S,7aS)-3-((1-cyclopropyl-2,2,2-trifluoroethoxy)methyl)tetrahydro-1H-pyrrolizin-7a(5H)-yl)methoxy)-1-fluoro-4,5,5a,6,7,8,9,10-octahydro-3,10a,11,13,14-pentaaza-6,9-methanonaphtho[1,8-ab]heptalen-2-yl)-5-ethynyl-6-fluoronaphthalen-2-ol] | – | – | 0.3 | 36.1 | 51
4 | C#Cc1c(F)ccc2cccc(-c3nc4c5c(nc(OC[C@@]67CCCN6C[C@H](F)C7)nc5c3F)N3C[C@H]5CC[C@H](N5)[C@H]3[C@H](CC)O4)c12 [Example 169, (5S,5aS,6S,9R)-5-ethyl-2-(8-ethynyl-7-fluoronaphthalen-1-yl)-1-fluoro-12-(((2R,7aS)-2-fluorotetrahydro-1H-pyrrolizin-7a(5H)-yl)methoxy)-5a,6,7,8,9,10-hexahydro-5H-4-oxa-3,10a,11,13,14-pentaaza-6,9-methanonaphtho[1,8-ab]heptalene] | 26.5 | 190 | 0.8 | – | –
5 | C#Cc1c(F)ccc2cccc(-c3nc4c5c(nc(OC[C@@]67CCCN6C[C@H](F)C7)nc5c3F)N3C[C@@]5(C)CC[C@H](N5)[C@H]3CC4)c12 [Example 191, (5aR,6S,9R)-2-(8-ethynyl-7-fluoronaphthalen-1-yl)-1-fluoro-12-(((2R,7aS)-2-fluorotetrahydro-1H-pyrrolizin-7a(5H)-yl)methoxy)-9-methyl-4,5,5a,6,7,8,9,10-octahydro-3,10a,11,13,14-pentaaza-6,9-methanonaphtho[1,8-ab]heptalene] | 39.8 | 110 | 2 | – | –
6 | C#Cc1c(F)ccc2cc(O)cc(-c3nc4c5c(nc(OC[C@@]67CCCN6C[C@H](F)C7)nc5c3F)N3C[C@H]5CC[C@H](N5)C3C[C@H]4C)c12 (stereo in doubt) [Example 96, 5-ethynyl-6-fluoro-4-((4R,5aS,6S,9R)-1-fluoro-12-(((2R,7aS)-2-fluorotetrahydro-1H-pyrrolizin-7a(5H)-yl)methoxy)-4-methyl-4,5,5a,6,7,8,9,10-octahydro-3,10a,11,13,14-pentaaza-6,9-methanonaphtho[1,8-ab]heptalen-2-yl)naphthalen-2-ol] | 0.5 | 1.9 | 0.3 | – | –
7 | C#Cc1c(F)ccc2cc(O)cc(-c3nc4c5c(nc(OCC6(CN7CC8CC(C8)C7)CC6)nc5c3F)N3C[C@H]5CC[C@H](N5)[C@H]3CC4)c12 [Example 179, 4-((5aR,6S,9R)-12-((1-((3-azabicyclo[3.1.1]heptan-3-yl)methyl)cyclopropyl)methoxy)-1-fluoro-4,5,5a,6,7,8,9,10-octahydro-3,10a,11,13,14-pentaaza-6,9-methanonaphtho[1,8-ab]heptalen-2-yl)-5-ethynyl-6-fluoronaphthalen-2-ol] | 0.4 | 7.7 | 0.1 | – | –
8 | C#Cc1c(F)ccc2cc(O)cc(-c3nc4c5c(nc(OC[C@@]67CCCN6[C@H](Cn6ccnn6)CC7)nc5c3F)N3C[C@H]5CC[C@H](N5)[C@H]3CO4)c12 [Example 49, 4-((5aS,6S,9R)-12-(((3S,7aS)-3-((1H-1,2,3-triazol-1-yl)methyl)tetrahydro-1H-pyrrolizin-7a(5H)-yl)methoxy)-1-fluoro-5a,6,7,8,9,10-hexahydro-5H-4-oxa-3,10a,11,13,14-pentaaza-6,9-methanonaphtho[1,8-ab]heptalen-2-yl)-5-ethynyl-6-fluoronaphthalen-2-ol] | 37 | 140 | 0.2 | – | –
9 | C#Cc1c(F)ccc2cc(O)cc(-c3nc4c5c(nc(OC[C@@]67CCCN6[C@H](COc6cnc(C(F)(F)F)cn6)CC7)nc5c3F)N3C[C@H]5CC[C@H](N5)[C@H]3CC4)c12 [Example 155, 5-ethynyl-6-fluoro-4-((5aR,6S,9R)-1-fluoro-12-(((3S,7aS)-3-(((5-(trifluoromethyl)pyrazin-2-yl)oxy)methyl)tetrahydro-1H-pyrrolizin-7a(5H)-yl)methoxy)-4,5,5a,6,7,8,9,10-octahydro-3,10a,11,13,14-pentaaza-6,9-methanonaphtho[1,8-ab]heptalen-2-yl)naphthalen-2-ol] | 0.3 | 5.2 | 0.1 | – | –
10 | C#Cc1c(F)ccc2cc(O)cc(-c3nc4c5c(nc(OC[C@@]67CCCN6C[C@H](F)C7)nc5c3F)N3C[C@H]5CC[C@H](N5)[C@H]3CCC4)c12 [Example 75, 5-ethynyl-6-fluoro-4-((6aR,7S,10R)-1-fluoro-13-(((2R,7aS)-2-fluorotetrahydro-1H-pyrrolizin-7a(5H)-yl)methoxy)-5,6,6a,7,8,9,10,11-octahydro-4H-3,11a,12,14,15-pentaaza-7,10-methanocyclohepta[4,5]cycloocta[1,2,3-de]naphthalen-2-yl)naphthalen-2-ol] | 0.17 | 0.5 | 0.06 | – | –
11 | Oc1cc(-c2nc3c4c(nc(OC[C@@]56CCCN5C[C@H](F)C6)nc4c2F)N2C[C@H]4CC[C@H](N4)[C@H]2CO3)c2c(OC(F)(F)F)cccc2c1 [Example 3, 4-((5aS,6S,9R)-1-fluoro-12-(((2R,7aS)-2-fluorotetrahydro-1H-pyrrolizin-7a(5H)-yl)methoxy)-5a,6,7,8,9,10-hexahydro-5H-4-oxa-3,10a,11,13,14-pentaaza-6,9-methanonaphtho[1,8-ab]heptalen-2-yl)-5-(trifluoromethoxy)naphthalen-2-ol] | 24 | 160 | 2 | – | –
12 | C#Cc1c(F)ccc2cc(O)cc(-c3nc4c5c(nc(OCC6(CN7CCC(OC)(C(F)(F)F)CC7)CC6)nc5c3F)N3C[C@H]5CC[C@H](N5)[C@H]3CC4)c12 [Example 168, 5-ethynyl-6-fluoro-4-((5aR,6S,9R)-1-fluoro-12-((1-((4-methoxy-4-(trifluoromethyl)piperidin-1-yl)methyl)cyclopropyl)methoxy)-4,5,5a,6,7,8,9,10-octahydro-3,10a,11,13,14-pentaaza-6,9-methanonaphtho[1,8-ab]heptalen-2-yl)naphthalen-2-ol] | 0.5 | 24 | 0.2 | – | –
